Several values for one entry are separate records, joined by “and”; a condition that tells them apart may be missing. Equal entries are not always repeated. Entries after “also recorded” stand apart in the source; their conditions may differ. Where two headings read alike, the source gives them in different places.

The source of these data is patent publication US20250151722A1 (priority 2022, published 2025).

The subject of test [1] is A. flavus IFM47798 strain. It counts as cell-based, Aspergillus flavus. As to conditions: for Total AF Relative Value (%): 48 h, 28° C., untreated control = 100, mean ± SD, n = 4.
Test [2] has as its system A. flavus IFM47798 strain. Description: Fungal growth (dry fungal weight) in liquid culture, Test Example 1. In kind it is cell-based, Aspergillus flavus.
For test [3], the system named is A. parasiticus NRRL2999 strain. In kind it is cell-based, Aspergillus parasiticus.
In test [4] the test system is A. flavus MAFF111229 strain.
Test [5] has as its system A. parasiticus NRRL2999 strain.
The subject of test [6] is A. flavus MAFF111229 strain. It counts as cell-based, Aspergillus flavus. As to conditions: untreated control = 100, mean ± SD, n = 4.
Test [7] has as its system A. flavus MAFF111229 strain. It counts as cell-based, Aspergillus flavus.
Where [8] appears, read: alcohol 0.3 v/v %, 48 h, 28° C., untreated control = 100, mean ± SD, n = 4.
The mark [9] stands for this setting: alcohol 0.6 v/v %, 48 h, 28° C., untreated control = 100, mean ± SD, n = 4.
[10] abbreviates: alcohol 1 v/v %, 48 h, 28° C., untreated control = 100, mean ± SD, n = 4.
Where [11] appears, read: alcohol 2 v/v %, 48 h, 28° C., untreated control = 100, mean ± SD, n = 4.
Setting [12] is: alcohol 4 v/v %, 48 h, 28° C., untreated control = 100, mean ± SD, n = 4.

`CCO` [Ethanol]: the aflatoxin production entry in test [1] is “the aflatoxin production was accordingly inhibited”. For the same compound, the “amount of aflatoxins produced” value in test [1] was “increase the amount of aflatoxins produced; also recorded: conversely increased”. In addition, the “Total AF Relative Value (%)” value was found to be 197.1 ± 25.9 % in test [1] (alcohol 0.3 v/v %); 244.5 ± 13.2 % in test [1] (alcohol 0.6 v/v %); 222.4 ± 20.9 % in test [1] (alcohol 1 v/v %); 24.3 ± 10.5 % in test [1] (alcohol 2 v/v %); 0.0 ± 0.0 % in test [1] (alcohol 4 v/v %). Moreover, the “growth of A. flavus” value was “not inhibited” in test [2] and “the growth of A. flavus was inhibited” in test [2] (concentration of 4 v/v % or higher).

In the case of `CCCO` [1-Propanol], the “Fungal Weight Relative Value (%)” value was 102.9 ± 12.0% and 118.1 ± 5.4% in test [2]; 104.5 ± 6.5% and 103.9 ± 8.8% in test [4]; 87.4 ± 1.8% and 86.4 ± 2.8% in test [5]. Besides, the “Total AF Relative Value (%)” value in test [3] was 58.7 ± 9.5 % and 47.5 ± 6.5 %.

Take `CC(C)O` [2-Propanol]: the “amount of aflatoxins produced” value in test [1] is listed as “increase the amount of aflatoxins produced; also recorded: same tendencies as in the case of ethanol”. Moreover, the “Fungal Weight Relative Value (%)” value in test [2] (setting [8]) was 126.2 ± 6.4%; in test [2] (setting [9]), 128.0 ± 11.6%; in test [2] (setting [10]), 103.7 ± 7.7%; in test [2] (setting [11]), 94.4 ± 8.3%; in test [2] (setting [12]) it was 0.0 ± 0.0%.

Turning to `CO` [Methanol], the “Total AF Relative Value (%)” value in test [1] (alcohol 0.3 v/v %) was 70.6 ± 12.1 %; in test [1] (alcohol 0.6 v/v %), 63.4 ± 12.7 %; in test [1] (alcohol 1 v/v %), 0.0 ± 0.0 %; in test [1] (alcohol 2 v/v %), 0.0 ± 0.0 %; in test [1] (alcohol 4 v/v %), 0.0 ± 0.0 %; in test [6] (alcohol 0.3 v/v %) it was 108.5 ± 5.8%. The “Total AF Relative Value (%)” value in test [6] (alcohol 0.6 v/v %) worked out at 102.3 ± 5.0%; in test [6] (alcohol 1 v/v %) it was 13.8 ± 0.8 %; in test [6] (alcohol 2 v/v %) it was 0.0 ± 0.0 %; in test [6] (alcohol 4 v/v %), 0.0 ± 0.0 %; in test [3] (alcohol 0.3 v/v %, untreated control = 100, mean ± SD, n = 4), 86.3 ± 3.6 %; in test [3] (alcohol 0.6 v/v %, untreated control = 100, mean ± SD, n = 4), 72.3 ± 1.9 %. Further, the “Total AF Relative Value (%)” value in test [3] (alcohol 1 v/v %, untreated control = 100, mean ± SD, n = 4) stood at 31.1 ± 1.4 %; in test [3] (alcohol 2 v/v %, untreated control = 100, mean ± SD, n = 4), 10.3 ± 1.3 %; in test [3] (alcohol 4 v/v %, untreated control = 100, mean ± SD, n = 4), 3.4 ± 0.8 %; in test [7] (corn kernels sprayed with alcohol 20 μL per 1 g of kernels, 28° C., one week, positive control = 100, mean ± SD, n = 3), 1.0 ± 1.3 %. Further, the “Fungal Weight Relative Value (%)” value in test [2] (setting [8]) is 103.7 ± 3.5%; in test [2] (setting [9]), 110.1 ± 6.7%; in test [2] (setting [10]) it was 128.4 ± 3.0%; in test [2] (setting [11]), 145.9 ± 11.4%; in test [2] (setting [12]) it was 103.7 ± 3.5%; in test [4], 123.6 ± 6.8% and 123.6 ± 10.4% and 112.8 ± 10.4% and 98.0 ± 4.6% and 101.4 ± 3.5%. For the same compound, in test [5], the “Fungal Weight Relative Value (%)” value is 93.3 ± 11.2% and 92.0 ± 6.9% and 100.0 ± 8.5% and 102.1 ± 1.6% and 102.9 ± 3.7%.

Turning to `CC(C)(C)O` [2-Methyl-2-Propanol], the “amount of aflatoxins produced” value in test [1] is “increase the amount of aflatoxins produced; also recorded: same tendencies as in the case of ethanol”. Moreover, the “Fungal Weight Relative Value (%)” value is 104.8 ± 7.9% in test [2] (setting [8]); 101.0 ± 4.8% in test [2] (setting [9]); 51.9 ± 15.5% in test [2] (setting [10]); 0.0 ± 0.0% in test [2] (setting [11]); 0.0 ± 0.0% in test [2] (setting [12]).

With `CCC(C)O` (stereo not drawn) [2-Butanol], the “Fungal Weight Relative Value (%)” value is 66.1 ± 5.4% and 70.2 ± 4.2% in test [2]; 56.2 ± 7.3% and 48.9 ± 8.7% in test [4]. Further, the “Total AF Relative Value (%)” value in test [7] came out at 0.0 ± 0.0 %.
